Results taken from ChEMBL document CHEMBL1201862, “PubChem BioAssay data set” (2004).
Calls of active or inactive are those of the source.

Assays:
[1] = cytotoxicity in melanoma parental cells – cell-based, CellTiter-Glo, dry powder, set 6, MITF inhibitor project, dose response (AID 624429); type: functional; settings: SK-MEL-5
[2] = growth inhibition of MALME3 cells – cell-based, CellTiter-Glo luminescence, dry powder, set 5, orthogonal assay for MITF inhibitor project, dose response (AID 651584); type: functional; settings: MALME-3
[3] = viability loss in MITF-independent A375 cells – cell-based, CellTiter-Glo luminescence, dry powder, set 7, counter-screen for MITF inhibitor project, dose response (AID 624490); type: functional; settings: A-375
[4] = MITF Measured in Cell-Based System Using Plate Reader - 2084-01_Inhibitor_Dose_DryPowder_Activity_Set6.; type: functional
[5] = melanocyte viability loss, MITF-dependent cells, cell-based, plate reader, dry powder, cytotoxicity control, dose response (AID 651920); type: functional
[6] = viability loss in MITF-independent A375 cells – cell-based, CellTiter-Glo luminescence, dry powder, set 6, counter-screen for MITF inhibitor project, dose response (AID 624488); type: functional; settings: A-375
[7] = MITF Orthogonal Assay: MALME3 CTG Assay Measured in Cell-Based System Using Plate Reader - 2084-04_Inhibitor_Dose_DryPowder_Activity_Set6.; type: functional; settings: MALME-3
[8] = cytotoxicity in MITF-independent A375 cells – cell-based, CellTiter-Glo luminescence, dry powder, set 9, counter-screen for MITF modulator project, dose response (AID 651591); type: functional; settings: A-375
[9] = MITF Orthogonal Assay: SK-MEL-5 CTG Assay Measured in Cell-Based System Using Plate Reader - 2084-02_Inhibitor_Dose_DryPowder_Activity_Set5.; type: functional
[10] = MITF Measured in Cell-Based System Using Plate Reader - 2084-01_Inhibitor_Dose_DryPowder_Activity_Set7.; type: functional
[11] = cytotoxicity in MITF-independent A375 cells – cell-based, CellTiter-Glo luminescence, dry powder, set 4, counter-screen for MITF inhibitor project, dose response (AID 624364); type: functional; settings: A-375;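 also: A375 melanoma cells are MITF independent so this is a counter screen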
[12] = growth inhibition of SK-MEL-5 melanoma cells – cell-based, CellTiter-Glo luminescence, dry powder, set 8, orthogonal assay for MITF inhibitor project, dose response (AID 651586); type: functional
[13] = inhibitors of TRPM1-promoter reporter in SK-MEL-5 – cell-based, luciferase, dry powder, set 9, MITF inhibitor project, dose response (AID 651588); type: functional
[14] = IC50 of Artemis nuclease activity blockers – biochemical, fluorescence intensity, dose response (AID 720701); type: functional;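 also: Artemis endonuclease enzyme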
[15] = Luminescence Cell-Based Dose Response HTS to Identify Activators of Luciferase Translation or Activity in H4 […] Cells. [Related pubchem assays: 1829 (Project Summary), 1814 (Primary HTS)]; type: functional
[16] = COV434 cell viability loss – plate reader, dry powder, SA7, cytotoxicity control for PAX8 inhibitor project, dose response (AID 743145); type: functional, cell-based
Paired box protein Pax-8 = Paired box protein Pax-8 (Homo sapiens, UniProt Q06710); test: PAX8 transcriptional activity inhibition in RMG-I – RMG-I cells, luciferase, cherry-pick, dose response (AID 687027); type: functional, cell-based;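 also: luciferase reporter driven by Pax8 target thyroperoxidase promoter measured by SteadyGlo luminescence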
[17] = OVCAR8 cell viability loss – plate reader, dry powder samples, PAX8 project, dose response (AID 743197); type: functional, cell-based; settings: OVCAR-8
[18] = OVCAR-3 cell viability loss – plate reader, dry powder samples, PAX8 inhibitor project, dose response (AID 743044); type: functional, cell-based
[19] = OVCAR4 cell viability loss – plate reader, dry powder, SA11, cytotoxicity control for PAX8 inhibitor project, dose response (AID 743150); type: functional, cell-based; settings: OVCAR-4
[20] = PAX8-dependent cell viability loss – plate reader, dry powder, dose response (AID 743049); type: functional, cell-based
[21] = inhibitors acting on PAX2 in cells – cell-based, plate reader, dry powder samples, selectivity assay for PAX8 inhibitor project, dose response (AID 743048); type: functional;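 also: HEK293 cells carrying a WT1 promoter luciferase reporter driven by expressed Pax2; potency is for inhibition of Pax2 driven reporter signal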
[22] = OV-90 cell viability loss – plate reader, dry powder, SA8, PAX8 inhibitor project, dose response (AID 743149); type: functional, cell-based
[23] = PAX5 cellular inhibition readout – cell-based, plate reader, dry powder samples, selectivity assay for PAX8 inhibitor project, dose response (AID 743047); type: functional;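 also: HEK293 cells carrying a Pax5 driven CD19 promoter luciferase reporter; potency of inhibitors that lower reporter luminescence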
[24] = COV362 cell viability loss – plate reader, dry powder, SA12, cytotoxicity control for PAX8 inhibitor project, dose response (AID 743144); type: functional, cell-based
[25] = target: T1, Rac GTPase-activating protein 1 (Homo sapiens, UniProt Q9H0H5); test: blockers of MgcRacGAP-driven Rac1 GTP hydrolysis – biochemical, ADP Hunter fluorescence, primary and confirmatory, confirmation (AID 624330); type: functional
T1 sequence (Q9H0H5 whole entry): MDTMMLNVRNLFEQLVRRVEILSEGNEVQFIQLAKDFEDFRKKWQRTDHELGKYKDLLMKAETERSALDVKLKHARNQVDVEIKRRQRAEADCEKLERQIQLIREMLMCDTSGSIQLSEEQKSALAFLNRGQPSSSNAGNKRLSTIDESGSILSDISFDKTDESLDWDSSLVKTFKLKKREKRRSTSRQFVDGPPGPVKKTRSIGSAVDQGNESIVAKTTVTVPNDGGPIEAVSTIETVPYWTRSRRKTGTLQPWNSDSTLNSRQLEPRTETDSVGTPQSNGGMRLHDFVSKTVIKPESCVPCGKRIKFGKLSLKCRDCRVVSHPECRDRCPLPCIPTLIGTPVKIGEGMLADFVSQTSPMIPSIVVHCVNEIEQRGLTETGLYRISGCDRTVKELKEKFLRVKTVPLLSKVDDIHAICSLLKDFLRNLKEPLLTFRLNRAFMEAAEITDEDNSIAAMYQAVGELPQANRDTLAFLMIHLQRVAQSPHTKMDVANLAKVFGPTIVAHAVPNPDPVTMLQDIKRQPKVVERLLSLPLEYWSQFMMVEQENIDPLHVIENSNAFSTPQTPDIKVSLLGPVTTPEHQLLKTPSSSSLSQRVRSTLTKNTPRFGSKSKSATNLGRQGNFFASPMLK

[26] = viability loss in HeLa cells – cytotoxicity control for MgcRacGAP inhibitor project, dose response (AID 624300); type: functional
[27] = target: Matrix metalloproteinase-14 (Homo sapiens, UniProt P50281); test: Dose Response confirmation of uHTS hits for a small molecule inhibitors of MT1-MMP activation in a fluorescence assay set 1.; type: functional
Fibrinogen beta chain [28] = target: T2, Fibrinogen beta chain (Homo sapiens, UniProt P02675); test: Fluorescence polarization-based biochemical high throughput dose response assay to identify inhibitors that disrupt the binding of a cyclic peptide (Tn7) to the fibrin proteolytic product D-Dimer and fragment E complex [DD(E )].
[29] = target: T3, Histone-lysine N-methyltransferase NSD2 (Homo sapiens, UniProt O96028); type: biochemical
T3 sequence (O96028 whole entry): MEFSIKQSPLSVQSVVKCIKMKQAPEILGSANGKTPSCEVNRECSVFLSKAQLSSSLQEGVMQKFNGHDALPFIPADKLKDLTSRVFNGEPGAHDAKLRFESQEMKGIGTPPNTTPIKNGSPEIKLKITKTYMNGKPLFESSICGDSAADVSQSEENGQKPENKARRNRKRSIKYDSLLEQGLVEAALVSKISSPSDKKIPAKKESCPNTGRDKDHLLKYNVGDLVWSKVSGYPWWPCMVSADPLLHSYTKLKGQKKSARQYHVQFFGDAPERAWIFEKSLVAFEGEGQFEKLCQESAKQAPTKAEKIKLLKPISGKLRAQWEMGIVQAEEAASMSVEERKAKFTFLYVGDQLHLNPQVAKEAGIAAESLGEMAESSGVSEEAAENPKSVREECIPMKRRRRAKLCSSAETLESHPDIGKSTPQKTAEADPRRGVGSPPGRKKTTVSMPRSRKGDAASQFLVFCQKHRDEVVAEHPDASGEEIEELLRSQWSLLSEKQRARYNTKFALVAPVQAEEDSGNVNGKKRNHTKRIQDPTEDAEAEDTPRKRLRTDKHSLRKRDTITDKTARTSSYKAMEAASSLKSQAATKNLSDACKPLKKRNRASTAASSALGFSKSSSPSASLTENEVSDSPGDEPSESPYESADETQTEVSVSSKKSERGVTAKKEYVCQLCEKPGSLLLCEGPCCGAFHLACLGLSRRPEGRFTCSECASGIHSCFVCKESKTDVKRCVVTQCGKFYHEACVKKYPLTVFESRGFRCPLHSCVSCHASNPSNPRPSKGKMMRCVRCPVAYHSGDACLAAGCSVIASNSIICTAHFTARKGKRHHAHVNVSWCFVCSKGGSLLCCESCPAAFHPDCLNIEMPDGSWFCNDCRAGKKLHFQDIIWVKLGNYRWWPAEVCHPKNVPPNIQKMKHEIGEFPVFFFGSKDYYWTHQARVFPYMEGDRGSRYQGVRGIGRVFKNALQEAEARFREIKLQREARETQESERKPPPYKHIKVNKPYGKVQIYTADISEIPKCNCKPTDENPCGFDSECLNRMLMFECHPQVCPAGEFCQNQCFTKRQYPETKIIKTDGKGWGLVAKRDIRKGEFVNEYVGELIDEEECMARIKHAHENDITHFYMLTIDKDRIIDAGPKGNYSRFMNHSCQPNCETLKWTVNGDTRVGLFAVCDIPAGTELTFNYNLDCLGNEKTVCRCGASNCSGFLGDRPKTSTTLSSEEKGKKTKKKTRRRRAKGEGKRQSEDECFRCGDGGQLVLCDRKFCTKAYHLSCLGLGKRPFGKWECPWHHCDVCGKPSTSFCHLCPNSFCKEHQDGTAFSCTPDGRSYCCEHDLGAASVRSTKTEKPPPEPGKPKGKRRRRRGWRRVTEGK

Fibrinogen beta chain [30] = target: T2, Fibrinogen beta chain; test: Fluorescence polarization-based biochemical high throughput dose response assay to identify inhibitors that disrupt the binding of a cyclic peptide (Tn6) to the fibrin proteolytic product D-Dimer and fragment E complex [DD(E )].
[31] = target: T4, DNA repair protein RAD52 homolog (Homo sapiens, UniProt P43351); type: functional, biochemical
T4 sequence (P43351 whole entry): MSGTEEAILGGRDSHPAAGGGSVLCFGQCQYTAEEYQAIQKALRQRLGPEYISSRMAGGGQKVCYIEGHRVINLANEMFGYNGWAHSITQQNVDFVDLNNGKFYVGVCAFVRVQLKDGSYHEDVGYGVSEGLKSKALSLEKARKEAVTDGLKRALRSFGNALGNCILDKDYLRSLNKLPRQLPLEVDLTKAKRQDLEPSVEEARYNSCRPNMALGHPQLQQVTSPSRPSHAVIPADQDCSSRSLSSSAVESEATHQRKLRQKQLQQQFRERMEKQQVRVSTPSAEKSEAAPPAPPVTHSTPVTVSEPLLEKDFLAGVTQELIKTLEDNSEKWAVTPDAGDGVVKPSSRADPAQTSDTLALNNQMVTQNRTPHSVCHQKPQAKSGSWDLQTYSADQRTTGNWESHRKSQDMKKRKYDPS

Nonstructural protein 1 = Nonstructural protein 1 (Influenza A virus, UniProt Q194T2); type: functional, Influenza A virus (A/California/07/2009(H1N1))
Nonstructural protein 1, sequence (Q194T2 whole entry): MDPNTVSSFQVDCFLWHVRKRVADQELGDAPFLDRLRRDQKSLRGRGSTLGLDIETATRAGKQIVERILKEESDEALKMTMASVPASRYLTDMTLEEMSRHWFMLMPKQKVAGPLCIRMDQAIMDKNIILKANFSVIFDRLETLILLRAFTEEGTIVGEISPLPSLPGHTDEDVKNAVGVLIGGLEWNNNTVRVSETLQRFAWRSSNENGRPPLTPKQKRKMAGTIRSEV

T2 sequence (P02675 whole entry, the tested form may be a part): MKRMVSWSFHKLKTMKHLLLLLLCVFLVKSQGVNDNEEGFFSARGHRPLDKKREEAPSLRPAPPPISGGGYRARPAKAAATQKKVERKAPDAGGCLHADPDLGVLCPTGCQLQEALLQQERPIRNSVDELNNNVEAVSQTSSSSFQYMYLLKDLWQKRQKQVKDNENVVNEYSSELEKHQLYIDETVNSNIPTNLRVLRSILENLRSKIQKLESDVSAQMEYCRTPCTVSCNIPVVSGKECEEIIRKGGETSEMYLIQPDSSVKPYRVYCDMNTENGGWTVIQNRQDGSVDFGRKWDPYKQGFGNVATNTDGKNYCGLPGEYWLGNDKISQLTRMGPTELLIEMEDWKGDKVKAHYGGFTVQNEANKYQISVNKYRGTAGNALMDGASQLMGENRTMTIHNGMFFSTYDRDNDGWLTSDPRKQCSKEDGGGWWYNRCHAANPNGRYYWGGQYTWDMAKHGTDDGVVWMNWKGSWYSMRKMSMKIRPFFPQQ
Paired box protein Pax-8, sequence (Q06710 whole entry): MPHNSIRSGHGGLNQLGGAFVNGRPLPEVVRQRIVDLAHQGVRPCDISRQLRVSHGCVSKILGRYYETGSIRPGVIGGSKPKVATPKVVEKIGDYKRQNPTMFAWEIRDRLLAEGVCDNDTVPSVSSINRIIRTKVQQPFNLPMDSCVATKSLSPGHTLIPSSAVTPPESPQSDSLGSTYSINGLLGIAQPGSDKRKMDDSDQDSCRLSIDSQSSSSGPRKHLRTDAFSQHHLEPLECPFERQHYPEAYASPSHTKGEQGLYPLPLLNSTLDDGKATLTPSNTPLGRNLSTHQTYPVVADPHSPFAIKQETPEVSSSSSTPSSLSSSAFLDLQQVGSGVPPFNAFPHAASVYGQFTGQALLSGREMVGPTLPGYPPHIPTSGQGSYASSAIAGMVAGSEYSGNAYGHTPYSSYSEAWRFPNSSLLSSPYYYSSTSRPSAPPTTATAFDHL

With `COC1=C(NS(=O)(=O)c2cccs2)C(=O)c2ccccc2C1=O` the AC50 [1] was 20.2 µM (active), the AC50 [2] was 38 µM (active) and the AC50 [3] was > 70 µM (inactive). For the same compound, the AC50 [4] was 13.2 µM (active), the AC50 [5] was 64.3 µM (active) and the AC50 [6] was 64.7 µM (active). The AC50 [7] was 38 µM (active), the AC50 [8] was > 70 µM (inactive) and the AC50 [9] was 19.1 µM (active). For the same compound, the AC50 [10] was 12.3 µM (active), the AC50 [11] was > 70 µM (inactive) and the AC50 [12] was 21 µM (active). The AC50 [13] was 26.3 µM (active).
In the case of `Nc1ccc2[nH]c(-c3ccccn3)nc2c1`, the IC50 [14] was 16.7 µM (active) and the EC50 [15] was 24.6 µM (active).
In the case of `N#C[C@H]1[C@@H](c2ccc(C#Cc3ccc(F)cc3)cc2)[C@H](CO)N1C(=O)C1CCCC1`, the AC50 [16] was 26.2 µM (active), the AC50 (Paired box protein Pax-8) was 13.4 µM (active) and the AC50 [17] was > 70 µM (inactive). The AC50 [18] was 34.5 µM (active), the AC50 [19] was > 70 µM (inactive) and the AC50 [20] was 18.6 µM (active). The AC50 [21] was 9.19 µM (active), the AC50 [22] was 26.5 µM (active) and the AC50 [23] was 8.42 µM (active). The AC50 [24] was 33.3 µM (active).
In the case of `O=C1c2cccc(NCCCNCCO)c2C(=O)c2cccc(NCCCNCCO)c21`, the IC50 [25] was 27.8 µM (active), the CC50 [26] was 25.6 µM (active) and the IC50 [27] was 38 µM (inactive). For the same compound, the IC50 (Fibrinogen beta chain [28]) was > 83.3 µM (inactive), the AC50 [29] was 3.53 µM (active) and the IC50 (Fibrinogen beta chain [30]) was 9.1 µM (active). For the same compound, the AC50 [31] was < 0.15 µM (active) and the IC50 (Nonstructural protein 1) was 10.1 µM (active).
